How the values were obtained:
[1] = target: T1, Human constitutive androstane receptor (hCAR) (Homo sapiens, UniProt Q14994); test: hCAR reporter activity in HEK293T cells; type: cell-based
T1 construct: expressed in transfected cells; host or cells: HEK293T
Protocol: Reverse transfection assays were performed in Caco‐2 cells as previously published with the following modifications (Kublbeck et al, 2015). 3.0 × 10^4 cells per well were transfected using pSG5‐PXR plasmid (300 ng/well), β‐Gal expression plasmid (600 ng/well), and CYP3A4‐luciferase reporter (500 ng/well) (Huang et al, 2007). After 24‐h transfection using Lipofectamine® LTX ([…] of plasmid), cells were exposed to FKK5 for 24 h. Cell lysates were prepared for β‐Gal and luciferase assays as previously published (Huang et al, 2007). The data are expressed as mean ± SD RLU (relative light units from luciferase assay) normalized to β‐Gal activity in the same well. Differences were tested using 2‐way ANOVA with Tukey's multiple comparison test, and P < 0.05 was considered significant (*). Standard transient transfection assays (PXR, CAR) in HEK293T cells were performed as previously published (Huang et al, 2007).

468 kinases = test: DiscoverX scanMAX kinase panel (KINOMEscan); type: binding, human; details: for kinase inhibition (in words): panel of 468 kinases
Protocol: Kinase Assays. The kinase inhibition assays were conducted by DiscoverX on a platform assay by Ambit BioSciences as described previously 16,17. FKK6 was screened at a single concentration of 10 μM in duplicate. The scanMAXSM assay panel measures 468 kinases
(https://www.discoverx.com/services/drug-discovery-development-services/kinase-profiling/kinomescan/scanmax). The assays measure a compound’s ability to inhibit binding of a canonical ligand substrate, with 0% activity of control corresponding to full inhibition and 100% activity of control to no inhibition. […]
quantitative measure of compound selectivity based on the number of kinase hits (enzymes inhibited) divided by the total number of distinct kinases tested. Three different activity cut-offs were analyzed – S(35) or % activity of control < 35; S(10) or % activity of control < 10; and S(1) or % activity of control < 1. To illustrate effect or lack of effect, an image of the entire family of kinases tested were grouped by families and S(35). The TREEspot Kinase dendrogram image was generated using TREEspot™ Software Tool and reprinted with permission from KINOME scan®, a division of DiscoveRx […]

hPXR-LBD (PXR.1) = target: T2, hPXR-LBD (PXR.1) (Homo sapiens, UniProt O75469); test: Isothermal titration calorimetry with His-tagged hPXR-LBD; type: binding; details: 37°C; for Kd: single-site model
T2 construct: made in house; host or cells: E. coli BL21-Gold
T2 sequence (O75469 146-433 limits assumed): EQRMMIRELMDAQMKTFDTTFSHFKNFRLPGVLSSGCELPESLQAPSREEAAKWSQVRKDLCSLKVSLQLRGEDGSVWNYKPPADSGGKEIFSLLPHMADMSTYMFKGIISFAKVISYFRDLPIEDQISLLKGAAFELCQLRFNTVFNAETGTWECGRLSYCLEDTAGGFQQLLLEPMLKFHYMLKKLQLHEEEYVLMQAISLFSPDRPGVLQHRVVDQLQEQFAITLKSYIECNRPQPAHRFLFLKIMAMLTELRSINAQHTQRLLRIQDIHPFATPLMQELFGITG
Protocol: The cloning, expression, and purification of His‐tagged PXR‐LBD were performed as previously published (Wallace et al, 2013) with the following modifications: For protein expression, Luria–Bertani (LB) media were inoculated with a saturated culture of BL21‐Gold cells transformed with HIS‐LIC plasmid containing the PXR‐LBD construct. The mixture was allowed to shake at 37°C until the cells reached an OD600 ~ 0.6, and then, the temperature was reduced to 18°C, at which time IPTG was added (final concentration of 0.1 mM) to induce protein expression. For purification, the His‐tag was not removed, and the uncleaved protein was loaded onto the gel filtration column with buffer containing HEPES (4‐(2‐hydroxyethyl)‐1‐piperazineethanesulfonic acid) (25 mM, pH 7.5) and NaCl (150 mM).
Isothermal titration calorimetry (ITC) was carried out using a VP‐ITC microcalorimeter from MicroCal⁄Malvern Instruments (Northampton, MA, USA). […] In all the experiments, the ligand solution was injected in 10 μl aliquots into the calorimetric cell containing PXR‐LBD (ligand‐binding domain) at a concentration of 3–6 μM. […] The experiments were carried out at 37°C. The heat evolved upon each injection of the ligands was obtained from the integral of the calorimetric signal. The heat associated with binding to PXR‐LBD in the cell was obtained by subtracting the heat of dilution from the heat of reaction.

[2] = tested on: CYP1A1, CYP3A4, MDR1 mRNA in primary human hepatocytes; test: qRT-PCR of CYP1A1, CYP3A4, MDR1 mRNA in primary human hepatocytes (four donors); details: for CYP1A1 mRNA fold to C / CYP3A4 mRNA fold to C / MDR-1 mRNA fold to C: primary human hepatocytes donor Hep200538, fold to UT control; for CYP1A1 mRNA fold to C / CYP3A4 mRNA fold to C / MDR-1 mRNA fold to C / CYP1A1 (1A1) mRNA, fold to C / CYP3A4 (3A4) mRNA, fold to C / MDR1 mRNA fold to C / MDR-1 mRNA, fold to C: normalised to GAPDH; for CYP1A1 (1A1) mRNA, fold to C / CYP3A4 (3A4) mRNA, fold to C / MDR1 mRNA fold to C / MDR-1 mRNA, fold to C: primary human hepatocytes, fold vs untreated (UT)
Protocol: Cells or primary human hepatocytes from four different donors (HEP200529, HEP220932, HEP200533, and HEP200538) were incubated for 24 h with test compounds; the vehicle was DMSO (0.1% v/v). Total RNA was isolated using TRI Reagent® (Molecular Research Center, Ohio, USA). cDNA was synthesized from 1,000 ng of total RNA using M‐MuLV Reverse Transcriptase (New England Biolabs, Ipswich, Massachusetts, USA) at 42°C for 60 min in the presence of random hexamers (New England Biolabs). Quantitative reverse transcriptase–polymerase chain reaction (qRT–PCR) was performed using LightCycler® 480 Probes Master on a LightCycler® 480 II apparatus (Roche Diagnostic Corporation).
The following protocol was used: An activation step at 95°C for 10 min was followed by 45 cycles of PCR (denaturation at 95°C for 10 s; annealing with elongation at 60°C for 30 s). The measurements were performed in triplicate. Gene expression was normalized per GAPDH as a housekeeping gene. […] Data are expressed as fold induction ± SD over the vehicle‐treated cells. The bar graph depicts one representative experiment of a series of experiments performed in three consecutive passages of cells. Differences were tested using one‐way ANOVA with Dunnett's post hoc test, and P < 0.05 was considered significant.

T1 sequence (Q14994 whole entry): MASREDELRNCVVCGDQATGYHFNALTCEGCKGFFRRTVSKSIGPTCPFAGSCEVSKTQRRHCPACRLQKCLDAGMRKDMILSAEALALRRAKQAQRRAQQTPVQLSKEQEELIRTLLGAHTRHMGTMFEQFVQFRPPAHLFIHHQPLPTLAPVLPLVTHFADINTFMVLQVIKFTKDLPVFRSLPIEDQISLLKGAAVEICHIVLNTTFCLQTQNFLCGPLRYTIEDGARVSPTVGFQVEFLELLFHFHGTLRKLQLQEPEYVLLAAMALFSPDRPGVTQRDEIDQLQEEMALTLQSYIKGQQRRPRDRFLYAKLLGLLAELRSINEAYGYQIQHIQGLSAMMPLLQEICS

SMILES | CAR activity induction [1] | kinase inhibition (in words) (468 kinases) | ΔH (enthalpy of binding) (hPXR-LBD (PXR.1)) | −TΔS (hPXR-LBD (PXR.1)) | Kd (hPXR-LBD (PXR.1)) | CYP1A1 mRNA induction ([2]; four donors) | CYP1A1 mRNA fold to C [2] | CYP3A4 mRNA fold to C [2] | MDR-1 mRNA fold to C [2] | CYP1A1 (1A1) mRNA, fold to C ([2]; donor Hep200529) | CYP3A4 (3A4) mRNA, fold to C ([2]; donor Hep200529) | MDR1 mRNA fold to C ([2]; donor Hep200529) | CYP1A1 (1A1) mRNA, fold to C ([2]; donor Hep200533) | CYP3A4 (3A4) mRNA, fold to C ([2]; donor Hep200533) | MDR-1 mRNA, fold to C ([2]; donor Hep200533) | CYP1A1 (1A1) mRNA, fold to C ([2]; donor Hep220932) | CYP3A4 (3A4) mRNA, fold to C ([2]; donor Hep220932) | MDR-1 mRNA, fold to C ([2]; donor Hep220932) | other results
O=C(c1ccncc1)c1cc2ccccc2n1S(=O)(=O)c1ccccc1 [FKK5, (1-(phenylsulfonyl)-1H-indol-2-yl)(pyridin-4-yl)methanone] | did not induce | neither of these compounds inhibited the kinases tested | -2.5 kcal/mol | -6.4 kcal/mol | 0.3 µM | did not | 1.13 | 0.84 | 0.52 | 1.12 fold | 0.73 fold | 0.93 fold | 1.51 fold | 1.03 fold | 1.05 fold | 0.39 fold | 0.50 fold | 0.35 fold | 
C#CCC(O)(c1ccncc1)c1cc2ccccc2n1S(=O)(=O)c1ccccc1 (stereo not drawn) [FKK6] | did not induce | neither of these compounds inhibited the kinases tested | -3.5 kcal/mol | -4.1 kcal/mol | 2.7 µM | did not | 15.94 | 6.17 | 0.95 | 6.44 fold | 2.67 fold | 1.52 fold | 3.26 fold | 2.13 fold | 2.03 fold | 0.76 fold | 0.97 fold | 0.40 fold | Interactions Mapped (TREEspot) (468 kinases; 10 μM): 0; Number of Hits, S(1) (468 kinases; 10 μM, 403 non-mutant kinases): 0; Number of Hits, S(10) (468 kinases; 10 μM, 403 non-mutant kinases): 0; Number of Hits, S(35) (468 kinases; 10 μM, 403 non-mutant kinases): 0; CYP3A4 mRNA induction ([2]; four donors): more than twofold induction in one of four hepatocyte samples; MDR1 mRNA induction ([2]; four donors): MDR1 mRNA induction in one of four hepatocyte samples

Reference: PMC7136958, “Targeting the pregnane X receptor using microbial metabolite mimicry” (EMBO Molecular Medicine, 2020)
